# Experimental data: patent US20230322770A1, “SUBSTITUTED HETEROARYL COMPOUNDS USEFUL AS INHIBITORS OF TLR9” (BRISTOL-MYERS SQUIBB COMPANY, priority 2020, published 2023)
# Columns and labels:
# Format in all cases: cell-based
# [1] = target: T1, human TLR7 (Homo sapiens, UniProt Q9NYK1); test: TLR7 inhibition reporter assay (HEK-Blue cells, SEAP reporter); conditions: HEK-Blue cells overexpressing human TLR7; stimulated with gardiquimod 7.5 μM; SEAP after 22 hour incubation
# T1 construct: host or cells: HEK-Blue cells (HEK293-derived reporter line)
# T1 sequence (Q9NYK1 27-1049): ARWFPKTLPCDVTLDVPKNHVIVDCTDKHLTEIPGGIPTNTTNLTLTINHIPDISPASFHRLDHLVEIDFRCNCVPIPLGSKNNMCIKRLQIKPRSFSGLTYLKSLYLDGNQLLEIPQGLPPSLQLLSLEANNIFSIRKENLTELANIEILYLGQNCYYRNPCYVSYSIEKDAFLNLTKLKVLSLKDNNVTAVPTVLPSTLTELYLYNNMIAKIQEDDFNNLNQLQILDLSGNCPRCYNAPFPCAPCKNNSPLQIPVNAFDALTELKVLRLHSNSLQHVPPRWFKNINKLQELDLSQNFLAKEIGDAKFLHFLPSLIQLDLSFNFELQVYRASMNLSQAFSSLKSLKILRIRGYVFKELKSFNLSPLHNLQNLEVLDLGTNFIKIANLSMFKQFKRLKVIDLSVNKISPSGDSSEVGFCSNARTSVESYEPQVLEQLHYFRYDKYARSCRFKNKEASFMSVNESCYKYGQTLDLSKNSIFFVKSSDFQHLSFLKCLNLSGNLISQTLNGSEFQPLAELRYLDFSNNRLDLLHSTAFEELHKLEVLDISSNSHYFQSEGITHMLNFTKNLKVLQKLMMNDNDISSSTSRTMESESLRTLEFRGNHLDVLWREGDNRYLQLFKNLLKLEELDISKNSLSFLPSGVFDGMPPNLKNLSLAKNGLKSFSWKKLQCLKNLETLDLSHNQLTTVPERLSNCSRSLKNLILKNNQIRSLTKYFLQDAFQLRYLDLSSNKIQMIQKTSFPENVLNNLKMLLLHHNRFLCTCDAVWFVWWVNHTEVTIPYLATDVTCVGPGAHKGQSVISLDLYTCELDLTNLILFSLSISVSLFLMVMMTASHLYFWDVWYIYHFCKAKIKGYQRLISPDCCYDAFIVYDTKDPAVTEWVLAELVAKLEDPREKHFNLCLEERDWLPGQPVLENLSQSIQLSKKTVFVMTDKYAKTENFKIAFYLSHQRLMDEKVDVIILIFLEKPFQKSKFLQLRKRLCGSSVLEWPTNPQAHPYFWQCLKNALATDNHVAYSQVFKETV
# Experimental: (§1) TLR7/8/9 Inhibition Reporter Assays
# (§2) HEK-Blue™-cells (Invivogen) overexpressing human TLR7, TLR8 or TLR9 receptors were used for screening inhibitors of these receptors using an inducible SEAP (secreted embryonic alkaline phosphatase) reporter gene under the control of the IFN-β minimal promoter fused to five NF-κB and AP-1-binding sites. Briefly, cells are seeded into Greiner 384 well plates (15000 cells per well for TLR7, 20,000 for TLR8 and 25,000 for TLR9) and then treated with test compounds in DMSO to yield a final dose response concentration range of 0.05 nM-50 μM. After a 30 minute compound pre-treatment at room temperature, the cells are then stimulated with a TLR7 ligand (gardiquimod at a final concentration of 7.5 μM), TLR8 ligand (R848 at a final concentration of 15.9 μM) or TLR9 ligand (ODN2006 at a final concentration of 5 nM) to activate NF-κB and AP-1 which induce the production of SEAP. After a 22 hour incubation at 37° C., 5% CO2, SEAP levels are determined with the addition of HEK-Blue™ Detection reagent (Invivogen), a cell culture medium that allows for detection of SEAP, according to manufacturer's specifications. The percent inhibition is determined as the % reduction in the HEK-Blue signal present in wells treated with agonist plus DMSO alone compared to wells treated with a known inhibitor.
# [2] = target: T2, human TLR9 (Homo sapiens, UniProt Q9NR96); test: TLR9 inhibition reporter assay (HEK-Blue cells, SEAP reporter); conditions: HEK-Blue cells overexpressing human TLR9; stimulated with ODN2006 5 nM; SEAP after 22 hour incubation
# T2 construct: host or cells: HEK-Blue cells (HEK293-derived reporter line)
# T2 sequence (Q9NR96 26-1032): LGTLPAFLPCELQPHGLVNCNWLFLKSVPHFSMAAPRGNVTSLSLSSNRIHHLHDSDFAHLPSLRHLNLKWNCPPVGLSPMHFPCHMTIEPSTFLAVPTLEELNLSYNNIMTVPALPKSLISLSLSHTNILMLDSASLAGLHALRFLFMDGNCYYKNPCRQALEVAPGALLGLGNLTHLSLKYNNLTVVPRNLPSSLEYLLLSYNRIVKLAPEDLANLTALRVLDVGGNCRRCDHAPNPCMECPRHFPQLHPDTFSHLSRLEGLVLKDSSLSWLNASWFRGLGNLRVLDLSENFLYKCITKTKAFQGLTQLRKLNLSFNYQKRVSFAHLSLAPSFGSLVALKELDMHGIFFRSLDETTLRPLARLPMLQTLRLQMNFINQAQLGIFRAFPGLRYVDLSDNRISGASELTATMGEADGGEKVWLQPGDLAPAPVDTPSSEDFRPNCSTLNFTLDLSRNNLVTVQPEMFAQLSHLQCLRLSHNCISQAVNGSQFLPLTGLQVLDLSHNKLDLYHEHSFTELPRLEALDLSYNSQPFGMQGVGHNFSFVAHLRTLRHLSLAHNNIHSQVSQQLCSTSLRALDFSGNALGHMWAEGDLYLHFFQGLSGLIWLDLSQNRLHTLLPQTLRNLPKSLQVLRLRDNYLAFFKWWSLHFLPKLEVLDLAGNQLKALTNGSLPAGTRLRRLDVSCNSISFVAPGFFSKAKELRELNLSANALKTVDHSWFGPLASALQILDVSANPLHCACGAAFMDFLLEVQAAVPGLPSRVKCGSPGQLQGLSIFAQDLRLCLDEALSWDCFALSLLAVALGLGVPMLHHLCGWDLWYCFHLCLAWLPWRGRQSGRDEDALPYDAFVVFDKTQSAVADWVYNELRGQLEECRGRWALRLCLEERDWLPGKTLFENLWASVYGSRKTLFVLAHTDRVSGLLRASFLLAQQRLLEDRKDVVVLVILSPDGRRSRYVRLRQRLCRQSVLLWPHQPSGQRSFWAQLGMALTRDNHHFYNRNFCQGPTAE
# Experimental: as §1, §2
# [3] = target: T3, human TLR8 (Homo sapiens, UniProt Q9NR97); test: TLR8 inhibition reporter assay (HEK-Blue cells, SEAP reporter); conditions: HEK-Blue cells overexpressing human TLR8; stimulated with R848 15.9 μM; SEAP after 22 hour incubation
# T3 construct: host or cells: HEK-Blue cells (HEK293-derived reporter line)
# T3 sequence (Q9NR97 27-1041): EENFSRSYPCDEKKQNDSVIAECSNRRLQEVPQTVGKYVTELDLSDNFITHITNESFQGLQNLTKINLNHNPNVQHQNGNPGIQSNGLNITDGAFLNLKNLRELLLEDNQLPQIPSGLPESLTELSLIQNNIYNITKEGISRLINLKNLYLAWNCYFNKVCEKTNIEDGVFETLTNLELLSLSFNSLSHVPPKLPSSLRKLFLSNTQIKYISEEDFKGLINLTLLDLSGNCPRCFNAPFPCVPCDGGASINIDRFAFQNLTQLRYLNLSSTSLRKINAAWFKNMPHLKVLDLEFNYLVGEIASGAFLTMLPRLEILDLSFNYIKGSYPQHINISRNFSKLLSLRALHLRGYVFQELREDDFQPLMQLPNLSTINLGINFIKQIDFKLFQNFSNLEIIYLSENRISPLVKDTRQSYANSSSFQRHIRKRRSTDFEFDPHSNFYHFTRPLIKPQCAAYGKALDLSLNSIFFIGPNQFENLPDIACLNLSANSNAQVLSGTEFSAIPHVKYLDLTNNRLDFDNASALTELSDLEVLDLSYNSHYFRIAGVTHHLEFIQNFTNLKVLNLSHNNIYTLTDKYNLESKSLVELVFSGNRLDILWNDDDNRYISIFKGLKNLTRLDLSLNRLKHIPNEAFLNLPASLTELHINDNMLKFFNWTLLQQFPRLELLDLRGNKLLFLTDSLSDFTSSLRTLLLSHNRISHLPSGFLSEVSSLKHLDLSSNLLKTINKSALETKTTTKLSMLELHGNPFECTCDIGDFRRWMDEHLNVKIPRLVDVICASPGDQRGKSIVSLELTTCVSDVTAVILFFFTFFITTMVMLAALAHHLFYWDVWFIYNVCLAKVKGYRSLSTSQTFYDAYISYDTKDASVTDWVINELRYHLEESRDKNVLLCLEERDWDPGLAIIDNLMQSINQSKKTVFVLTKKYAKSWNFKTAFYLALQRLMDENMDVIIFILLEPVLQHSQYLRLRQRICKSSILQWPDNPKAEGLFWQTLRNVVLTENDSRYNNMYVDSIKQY
# Experimental: as §1, §2
SMILES,IC50 [1] [µM],IC50 [2] [nM],IC50 [3] [µM]
"COc1ccc(-c2cc3ncc(-c4ccc(N5CCN(C(C)C)CC5)cc4)cc3n2C)cc1OC [Example 1, 2-(3,4-Dimethoxyphenyl)-6-(4-(4-isopropylpiperazin-1-yl)phenyl)-1-methyl-1H-pyrrolo[3,2-b]pyridine]",7,94,7.2
"CC(C)N1CCN(c2ccc(-c3cnc4cc(-c5ccc(S(C)(=O)=O)cc5)n(C)c4c3)cc2)CC1 [Example 2, 6-(4-(4-Isopropylpiperazin-1-yl)phenyl)-1-methyl-2-(4-(methylsulfonyl)phenyl)-1H-pyrrolo[3,2-b]pyridine]",2.7,139,7.6
"CC(C)N1CCN(c2ccc(-c3cc4nc(-c5ccc(S(C)(=O)=O)cc5)cc-4n(C)c3)cc2)CC1 [Example 3, 6-(4-(4-isopropylpiperazin-1-yl)phenyl)-4-methyl-2-(4-(methylsulfonyl)phenyl)-4H-pyrrolo[3,2-b]pyridine]",9.7,18,11.1
"COc1ccc(-c2cc3ccc(-c4ccc(N5CCN(C(C)C)CC5)cc4)nc3n2C)cc1OC [Example 7, 2-(3,4-Dimethoxyphenyl)-6-(4-(4-isopropylpiperazin-1-yl)phenyl)-1-methyl-1H-pyrrolo[2,3-b]pyridine]",≥ 50,4580,≥ 50
"Cn1c(-c2ccc(S(C)(=O)=O)cc2)cc2ncc(-c3ccc(N4CCNCC4)cc3)cc21 [Example 20, 1-Methyl-2-(4-(methylsulfonyl)phenyl)-6-(4-(piperazin-1-yl)phenyl)-1H-pyrrolo[3,2-b]pyridine]",2,171,2.4
CC(C)N1CCN(Cc2ccc(-c3cnc4cc(-c5ccc(S(C)(=O)=O)cc5)n(C)c4c3)cc2)CC1 [Example 23],> 50,69,23.2
CCN1CCN(Cc2ccc(-c3cnc4cc(-c5ccc(S(C)(=O)=O)cc5)n(C)c4c3)cc2)CC1 [Example 25],> 50,212,43.8
CC(C)N1C[C@H](C)N(c2ccc(-c3cnc4cc(-c5ccc(S(C)(=O)=O)cc5)n(C)c4c3)cc2)[C@@H](C)C1 [Example 31],2.5,480,4.5
CC(C)N1CCN(c2ccc(-c3cnc4cc(-c5ccc(S(C)(=O)=O)cc5)n(C)c4c3)cc2)C[C@H]1C [Example 32],11.4,243,15.1
CN(C)S(=O)(=O)c1cccc(-c2cc3ncc(-c4ccc(N5CCN(C6CC6)CC5)cc4)cc3n2C)c1 [Example 44],–,700,–

# Further lines, results first:
IC50 [1] [µM],IC50 [2] [nM],IC50 [3] [µM],SMILES
7.9,663,4.3,"Cn1c(-c2ccc(S(C)(=O)=O)cc2)cc2ncc(-c3ccc(CN4CCN(CCC(C)(C)O)CC4)cc3)cc21 [Example 19, 2-Methyl-4-(4-(4-(1-methyl-2-(4-(methylsulfonyl)phenyl)-1H-pyrrolo[3,2-b]pyridin-6-yl)benzyl)piperazin-1-yl)butan-2-ol]"
9.6,206,8.1,Cn1c(-c2ccc(S(C)(=O)=O)cc2)cc2ncc(-c3ccc(CN4CCN(CC(C)(C)O)CC4)cc3)cc21 [Example 21]
7.9,339,14.6,Cn1c(-c2ccc(S(C)(=O)=O)cc2)cc2ncc(-c3ccc(CN4CCC(C)(O)CC4)cc3)cc21 [Example 22]
4.9,14,> 50,CN(C)C1CCN(Cc2ccc(-c3cnc4cc(-c5ccc(S(C)(=O)=O)cc5)n(C)c4c3)cc2)CC1 [Example 24]
3.2,236,5,CC(C)N1CCN(c2ccc(-c3cnc4cc(-c5ccc(S(C)(=O)=O)cc5)n(C)c4c3)cc2)[C@H](C)C1 [Example 28]
3.3,722,2.3,CC(C)N1CCN(c2ccc(-c3cnc4cc(-c5ccc(S(C)(=O)=O)cc5)n(C)c4c3)cc2)C[C@@H]1C [Example 29]
4.8,576,5.3,CC(C)N1CCN(c2ccc(-c3cnc4cc(-c5ccc(S(C)(=O)=O)cc5)n(C)c4c3)cc2)[C@@H](C)C1 [Example 30]
–,> 50000,–,Cn1c(-c2ccc(S(C)(=O)=O)cc2F)cc2ncc(-c3ccc(N4CCN(C5CC5)CC4)cc3)cc21 [Example 45]
